# Results: US20190040447A1, “Assay for compounds having activity against influenza” (priority 2016, published 2019)
# Biological target: RNA-dependent RNA polymerase (RdRp) comprised in an influenza viral ribonucleoprotein (RNP) complex (Influenza A virus, UniProt P03428+P03431+P03433)
# Test: Influenza filter RNP transcription/replication assay (HTS screen using the method of the invention)
# Format: biochemical, Influenza virus (Influenza A/PR/8/34, Influenza B\Lee\40)
# Details: virus lysate containing native vRNP; which assay (transcription or replication) and which strain are not stated
smiles,measurement,value
"O=C(O)[C@H]1[C@H]2CC[C@H]([C@H]3C[C@H]32)[C@@H]1Nc1nc(-c2n[nH]c3ncc(F)cc23)ncc1F [(−)-(1R,2S,4R,5S,6S,7S)-7-((5-fluoro-2-(5-fluoro-1H-pyrazolo[3,4-b]pyridin-3-yl)pyrimidin-4-yl)amino)tricyclo[3.2.2.02,4]nonane-6-carboxylic Acid]",IC50,0.2 nM
